Measured values published in ChEMBL document CHEMBL5107958, “Phosphoramidate Prodrugs Continue to Deliver, The Journey of Remdesivir (GS-5734) from RSV to SARS-CoV-2” (ACS Med Chem Lett, 2022).

What was measured:
SARS-CoV-2 [1] = experiment: Potency index, ratio of EC50 of GS-441524 to EC50 of test compound for antiviral activity against SARS-CoV-2 infected in human A549 cells expressing hACE2 assessed as reduction in viral replication at MOI of 0.025 incubated for 48 hrs by luciferase based assay; assay type: functional, Severe acute respiratory syndrome coronavirus 2
[2] = Clearance in ferret at 10 mg/kg, iv; assay type: ADME, organism-based, Mustela putorius furo; conditions: in vivo
SARS-CoV-2 [3] = experiment: Potency index, ratio of EC50 of GS-441524 to EC50 of test compound for antiviral activity against SARS-CoV-2 infected in African green monkey Vero E6 cells assessed as reduction in viral replication; assay type: functional, Severe acute respiratory syndrome coronavirus 2
[4] = Prodrug conversion in human assessed as AUC (0 to last) of parent nucleoside compound at 2.5 mg/kg, iv; assay type: ADME, organism-based; design: time 0 - last, dose 2.5 mg/kg, route iv; conditions: in vivo
[5] = AUC (0 to infinity) in human at 2.5 mg/kg, iv; assay type: ADME, organism-based; design: time infinity, dose 2.5 mg/kg, route iv; conditions: in vivo
SARS-CoV-2 [6] = experiment: (§1) Antiviral activity against SARS-CoV-2 infected in human Calu-3 2B4 cells assessed as reduction in viral replication at MOI of 0.01 preincubated for 2 hrs followed by viral infection for 30 mins and subsequent virus removal and addition of medium containing compound measured after 72 hrs by RT-qPCR analysis; assay type: functional, organism-based; conditions: Severe acute respiratory syndrome coronavirus 2, Calu-3 2B4
Nipah virus [7] = experiment: Antiviral activity against Nipah M1999 infected in human HeLa cells assessed as reduction in viral replication incubated for 48 to 144 hrs by reporter virus assay; assay type: functional, organism-based; conditions: Henipavirus nipahense
SARS-CoV-2 [8] = experiment: Antiviral activity against SARS-CoV-2 infected in human Caco-2 cells assessed as reduction in viral replication at MOI of 0.01 measured after 72 hrs by qRT-PCR analysis; assay type: functional, organism-based; conditions: Severe acute respiratory syndrome coronavirus 2, Caco-2, 72 h
SARS-CoV-2 [9] = experiment: Potency index, ratio of EC50 of GS-441524 to EC50 of test compound for antiviral activity against SARS-CoV-2 infected in human Huh-7 cells assessed as reduction in virus-induced cytopathic effect at MOI of 0.0037 measured after 4 days by MTS assay; assay type: functional, Severe acute respiratory syndrome coronavirus 2; conditions: time 4 day
SARS-CoV-2 [10] = experiment: as §1, with “Potency index, ratio of EC50 of GS-441524 to EC50 of test compound for antiviral” for “Antiviral”, “activity” for “activity against”; assay type: functional, Severe acute respiratory syndrome coronavirus 2; conditions: time 74.5 hrs
[11] = Volume of distribution at steady state in ferret at 10 mg/kg, iv; assay type: ADME, organism-based, Mustela putorius furo; conditions: in vivo, read-out: Vdss
[12] = AUC (0 to infinity) in ferret at 10 mg/kg, iv; assay type: ADME, organism-based, Mustela putorius furo; design: time infinity, dose 10 mg/kg, route iv; conditions: in vivo
Marburgvirus = experiment: Potency index, ratio of EC50 of GS-441524 to EC50 of test compound for antiviral activity against MARV Rec. Bat371-GFP infected in human Huh-7 cells assessed as reduction in viral replication incubated for 48 to 144 hrs by fluorescence based assay; assay type: functional; conditions: time 48-144 hrs
[13] = Prodrug conversion in Normal human bronchial epithelial cells assessed as half life of triphosphate metabolite; assay type: ADME, cell-based; conditions: normal human bronchial epithelial cell
Ebolavirus [14] = experiment: Antiviral activity against Ebola infected in human macrophages assessed as reduction in viral replication; assay type: functional, organism-based; conditions: Orthoebolavirus, Macrophage
Measles morbillivirus [15] = experiment: Potency index, ratio of EC50 of GS-441524 to EC50 of test compound for antiviral activity against Measles Rec.rMVEZGFP(3) infected in human HeLa cells assessed as reduction in viral replication incubated for 48 to 144 hrs by fluorescence based assay; assay type: functional; conditions: time 48-144 hrs
[16] = Prodrug conversion in human macrophages assessed as half life of triphosphate metabolite; assay type: ADME, cell-based; conditions: macrophage
Ebolavirus [17] = experiment: Antiviral activity against Ebola infected in human HeLa cells assessed as reduction in viral replication; assay type: functional, organism-based; conditions: Orthoebolavirus
SARS-CoV [18] = experiment: Antiviral activity against SARS-CoV infected in HAE cells assessed as reduction in viral replication at MOI of 0.5 preincubated for 3 hrs followed by virus removal measured after 48 hrs by Hoechst 33258 staining based assay; assay type: functional, organism-based; conditions: Severe acute respiratory syndrome-related coronavirus
[19] = test system: Middle East respiratory syndrome-related coronavirus; experiment: Antiviral activity against MERS-CoV infected in human Calu-3 2B4 cells assessed as reduction in viral replication at MOI of 0.08 infected for 1 hr followed by virus removal and subsequent addition of medium containing compound measured after 48 hrs post-infection by nLUC assay; assay type: functional, organism-based
Measles morbillivirus [20] = experiment: Antiviral activity against Measles virus infected in HMVEC cells assessed as reduction in viral replication; assay type: functional, organism-based
[21] = Volume of distribution at steady state in human at 2.5 mg/kg, iv; assay type: ADME, organism-based; conditions: in vivo, read-out: Vdss
[22] = Half life in human at 2.5 mg/kg, iv; assay type: ADME, organism-based; conditions: in vivo
[23] = Stability of prodrug in mouse assessed as half life; assay type: ADME; conditions: in vivo
Nipah virus [24] = experiment: Antiviral activity against Nipah virus infected in African green monkey assessed as animal survival at 10 mg/kg, iv qd relative to control; assay type: functional; conditions: Henipavirus nipahense
[25] = Clearance in human at 2.5 mg/kg, iv; assay type: ADME, organism-based; conditions: in vivo
Ebolavirus [26] = experiment: Potency index, ratio of EC50 of GS-441524 to EC50 of test compound for antiviral activity against Ebola infected in human HeLa cells assessed as reduction in viral replication; assay type: functional
[27] = test system: Middle East respiratory syndrome-related coronavirus; experiment: Antiviral activity against MERS-CoV infected in HAE cells assessed as reduction in viral replication at MOI of 0.5 incubated for 3 hrs followed by virus removal measured after 48 hrs by Hoechst 33258 staining based assay; assay type: functional, organism-based
[28] = Prodrug conversion in ferret lung assessed as triphosphate metabolite formation at 10 mg/kg, iv measured after 24 hrs; assay type: ADME, organism-based, Mustela putorius furo; conditions: in vivo
SARS-CoV-2 [29] = experiment: Antiviral activity against SARS-CoV-2 infected in human Huh-7 cells assessed as reduction in virus-induced cytopathic effect at MOI of 0.0037 measured after 4 days by MTS assay; assay type: functional, organism-based; conditions: Severe acute respiratory syndrome coronavirus 2, Huh-7, 96 h
SARS-CoV-2 [30] = experiment: Antiviral activity against SARS-CoV-2 infected in human Calu-3 cells assessed as reduction in viral replication at MOI of 0.01 measured after 72 hrs by qRT-PCR analysis; assay type: functional, organism-based; conditions: Severe acute respiratory syndrome coronavirus 2, Calu-3, 72 h
SARS-CoV-2 [31] = experiment: Potency index, ratio of EC50 of GS-441524 to EC50 of test compound for antiviral activity against SARS-CoV-2 infected in human Calu-3 cells assessed as reduction in viral replication at MOI of 0.01 measured after 72 hrs by qRT-PCR analysis; assay type: functional, Severe acute respiratory syndrome coronavirus 2
SARS-CoV-2 [32] = experiment: Antiviral activity against SARS-CoV-2 infected in HAE cells assessed as reduction in viral replication at MOI of 0.5 incubated for 2 hrs followed by virus removal measured after 48 hrs by plaque assay; assay type: functional, organism-based; conditions: Severe acute respiratory syndrome coronavirus 2, HAE
[33] = Prodrug conversion in ferret assessed as AUC (0 to last) of parent nucleoside compound at 10 mg/kg, iv; assay type: ADME, organism-based, Mustela putorius furo; design: time 0 - last, dose 10 mg/kg, route iv; conditions: in vivo
SARS-CoV [34] = experiment: Potency index, ratio of EC50 of GS-441524 to EC50 of test compound for antiviral activity against SARS-CoV infected in HAE cells assessed as reduction in viral replication at MOI of 0.5 preincubated for 3 hrs followed by virus removal measured after 48 hrs by Hoechst 33258 staining based assay; assay type: functional, Severe acute respiratory syndrome-related coronavirus; conditions: time 51 hrs
[35] = Half life in Rhesus monkey at 10 mg/kg, iv; assay type: ADME, organism-based, Macaca mulatta; conditions: in vivo

## CCC(CC)OC(=O)[C@H](C)N[P@](=O)(OC[C@H]1O[C@@](C#N)(c2ccc3c(N)ncnn23)[C@H](O)[C@@H]1O)Oc1ccccc1
SARS-CoV-2 [1]
  Ratio: 7.6
[2]
  clearance: 2.6 L/h/kg
SARS-CoV-2 [3]
  Ratio: 0.7
[4]
  AUClast: 7.5 µM·h
[5]
  AUC(0-inf): 5 µM·h
SARS-CoV-2 [6]
  EC50: 0.28 µM
Nipah virus [7]
  EC50: 0.066 µM
SARS-CoV-2 [8]
  EC50: 0.001 µM
SARS-CoV-2 [9]
  Ratio: >1000
SARS-CoV-2 [10]
  Ratio: 2.2
[11]
  Vd: 0.34 L/kg
[12]
  AUC(0-inf): 7 µM·h
Marburgvirus
  Ratio: 136
[13]
  t1/2: 14 h
Ebolavirus [14]
  EC50: 0.086 µM
Measles morbillivirus [15]
  Ratio: 27
[16]
  t1/2: 14 h
Ebolavirus [17]
  EC50: 0.14 µM
SARS-CoV [18]
  EC50: 0.069 µM
[19]
  EC50: 0.069 µM
Measles morbillivirus [20]
  EC50: 0.06 µM
[21]
  Vd: 1.22 L/kg
[22]
  half-life: 1 h
[23]
  t1/2: 5 min
Nipah virus [24]
  survival at 10 mg/kg: 100%
[25]
  clearance: 0.86 L/h/kg
Ebolavirus [26]
  Ratio: >143
[27]
  EC50: 0.074 µM
[28]
  Drug metabolism: 1.28 nmol/g
SARS-CoV-2 [29]
  EC50: < 0.001 µM
SARS-CoV-2 [30]
  EC50: 0.11 µM
SARS-CoV-2 [31]
  Ratio: 2.4
SARS-CoV-2 [32]
  EC50: 0.01 µM
[33]
  AUClast: 18.2 µM·h
SARS-CoV [34]
  Ratio: 2.6
[35]
  half-life: 0.383 h
